Assay [1] has as its system LNCaP cells. In words: Apoptosis by DAPI staining, LNCaP. The assay is classed as cell-based, human. Here is the method: Cells were plated at 2×10^6 in 100 mm cell culture plates, cultured overnight and washed with serum free media before transfection. Plasmids (0.7 μg or 4.2 of μg) or empty vector (pcDNA3) were mixed with 50 μl or 300 μl serum free media and 4 μl or 24 μl PLUS reagent (Invitrogen, CA) and incubated for 15 min at room temperature. Next 2 μl or 12 μl of Lipofectamine reagent (Invitrogen, CA) in 50 μl or 300 μl serum free media were added and the mixture incubated for another 15 min before adding to the cells in 0.5 ml or 5 ml serum free media. Cells were incubated with transfection reagents for 3 h and the growth media containing 2×FBS was added to the cells. Transfected cells were cultured overnight before α-TEA treatment. Transfection efficiency was determined to be 70% using GFP expressing plasmid.
Assessment of apoptosis based on nuclear morphology using 4′, 6-diamidino-2-phenylindole dihydrochloride (DAPI; Boehringer Mannheim Corp. Indianapolis, Ind.) has been described previously (Yu et al., 2003; Israel et al., 2000). Briefly, 1.5×10^5/well LNCaP or PC-3-GFP cells were plated in 12-well tissue culture plates and cultured overnight to allow cells to attach. On the next day, cells were treated with various concentrations of α-TEA and incubated for various time periods. At the end of treatments, cells were collected, washed with PBS, stained with 25 μl of 2 μg/ml DAPI, and viewed under a fluorescent microscope (model ICM 405 with a model 487701 filter, Zeiss). Cells which contained clearly condensed chromatin or fragmented nuclei were scored as apoptotic cells. ≧500 cells were counted in each sample. Apoptotic data are presented as percentage of apoptotic cells±S.D. for three independent experiments.
FOXO1 siRNA used in the study was purchased from Santa Cruz (Santa Cruz, Calif.). […] Transfection of human prostate cancer cells with FOXO1 siRNA or negative control siRNA was performed in 100 mm cell culture dishes at a density of 2×10^6 cells/dish using Lipofectamine 2000 (Invitrogen, Carlsbad, Calif.) and 300 pmol of siRNA duplex, resulting in a final siRNA concentration of 30 nM. siRNA transfected cells were incubated for 48-72 h prior to α-TEA treatment.

Assay [2] deals with TSP-1. The assay is described as follows: TSP-1 mRNA (RT-PCR) and protein (Western blot) levels in human breast cancer cells. The assay is classed as cell-based. The conditions noted are these: 40 μM α-TEA; for peak TSP-1 mRNA levels, fold of VEH control: 6 h. Here is the method: Whole-cell protein extracts were prepared as described previously (Yu et al., 1999), and 50 μg of protein was loaded per lane, separated using SDS-PAGE on a 10-15% gel under reducing conditions, and electroblotted onto a nitrocellulose membrane ([…] Optitran BA-S-supported nitrocellulose; Schleicher and Schuell, Keene, N.H.). Equal loading was verified using GAPDH antibody. Primary rabbit antibodies with specificity for PARP and primary goat antibody with specificity for Arg were purchased from Santa Cruz Biotechnology (Santa Cruz, Calif.). Horseradish peroxidase conjugated goat anti-rabbit or horseradish goat anti-mouse secondary antibody was purchased from Jackson Immunoresearch Laboratory (West Grove, Pa.). Horseradish peroxidase-conjugated donkey anti-goat serum was purchased from Santa Cruz Biotechnology. Immune complexes were visualized using enhanced chemiluminescence detection (Pierce Chemical Co., Rockford, Ill.). Fold differences in level of chemiluminescence were determined by densitometric analyses.
Total RNA was isolated from cells using RNeasy Protect Mini kit (Qiagen, Valencia, Calif.) according to manufacturer's instruction. Reverse transcription was performed as described above except using 15 μg of total RNA as template. Polymerase chain reaction (PCR) with Arg primers 30 cycles in volumes of 50 μl according to the manufacturer's protocol (Taq PCR Master Mix Kit; Qiagen, Valencia, Calif.). Primers used in the analyses were: Arg, forward (5′-CAGTGATGCCTCCACCTCAA-3′; SEQ ID NO:2) and reverse (5′-TTTCCCTCTCCCCTCAGAAAT-3′; SEQ ID NO:3) and for β-actin (loading control), forward (5′-GGCGGCACCACCATGTACCCT-3′; SEQ ID NO:4) and reverse (5′-AGGGGCCGGACTCGTCATACT-3′; SEQ ID NO:5) (Invitrogen, Carlsbad, Calif.). The amplification reaction involved denaturation at 95° C. for 30 seconds, annealing at 52° C. for 30 seconds, and extension at 72° C. for 30 seconds (for Arg) using a PTC-225 thermal cycler (MJ Research, San Francisco, Calif.). The PCR products were resolved on 1% agarose gels and visualized by ethidium bromide staining.
Western blot analyses with a primary mouse antibody (Calbiochem (San Diego, Calif.)) was used to determine protein levels in treated versus untreated MDA-MB-435 and MCF-7 human breast cancer cells (FIG. 2B). […] 66c1-4-GFP cells are a mouse mammary tumor cell line originally derived from a spontaneous mammary tumor in a Balb/cfC3H mouse and later isolated as a 6-thioguanine-resistant clone. The cells were subsequently stably transfected with the enhanced GFP (Lawson et al., 2003). […] In MCF-7 cells, peak TSP-1 mRNA levels at 6 h were 1.3-fold of the VEH control and peak TSP-1 protein levels at 24 h were 2.4-fold of the VEH control. […]
(Immunoblotting shows a protein as a band on a membrane.)

The subject of assay [3] is survivin. The assay is described as follows: Survivin protein level by immunoblot. The assay is classed as cell-based, human. Conditions: LNCaP and PC-3-GFP cells, 40 μM α-TEA, time-dependent. The source says: Antibodies to human Flip and survivin used in these experiments were purchased from Santa Cruz Biotechnology (Santa Cruz, Calif.).
For assay [4], the system named is human MDA-MB-435 breast cancer cells. The conditions noted are these: preclinical xenograft model transplanted with human MDA-MB-435 breast cancer cells (Zhang et al., 2004); cited from earlier work.
Assay [5] deals with TSP-1. In words: TSP-1 mRNA and protein levels in 66c1-4-GFP mouse mammary tumor cells. The assay is classed as cell-based. The conditions noted are these: 66c1-4-GFP cells, 40 μM α-TEA.

We go through one compound from patent US20100292316A1, “IMPROVED THERAPEUTIC METHODS AND COMPOSITIONS COMPRISING CHROMAN RING COMPOUNDS” (Research Development Foundation, priority 2007, published 2010).

The structures appear in SMILES notation.

Turning to `Cc1c(C)c2c(c(C)c1OCC(=O)O)CC[C@@](C)(CCC[C@H](C)CCC[C@H](C)CCCC(C)C)O2` [α-TEA], the “decrease in percentage of apoptotic cells in cells expressing constitutively active Akt1 vs empty vector” value in assay [1] (15 μM α-TEA) was found to be 21%; in assay [1] (20 μM α-TEA) it was 24%. In addition, the “decrease in percentage of apoptotic cells in cells expressing constitutively active Akt2 vs empty vector” value in assay [1] (20 μM α-TEA) is 10%. The “α-TEA-induced apoptosis on overexpression of wild type or constitutively active FOXO1” value in assay [1] (40 μM α-TEA 15 h, P<0.009) is on record as “increased”. The “peak TSP-1 mRNA levels, fold of VEH control” value is given as 1.3 fold in assay [2] (MCF-7 cells), 1.8 fold in assay [2] (MDA-MB-435 cells) and 2.4 fold in assay [5] (6 h). Moreover, the “peak TSP-1 protein levels, fold of VEH control” value in assay [2] (MCF-7 cells, 24 h) was found to be 2.4 fold; in assay [2] (MDA-MB-435 cells, 15 h), 4.7 fold. Besides, in assay [3], the “protein levels of survivin” value was “downregulated”. The blood vessel density entry in assay [4] is recorded as “significantly reduce blood vessel density”. Besides, the “TSP-1 protein levels, fold of VEH control” value in assay [5] (24 h) was found to be 7.8 fold.
